Test results published in ChEMBL document CHEMBL4651402, “Screening of ~5500 FDA-approved drugs and clinical candidates for anti-SARS-CoV-2 activity” (2021).

Assays:
[1] = in vitro; conditions: chlorocebus sabaeus
[2] = tested on: SARS-CoV-2; test: microbe, parasite or virus in culture; assay type: functional, organism-based, Chlorocebus sabaeus, Vero C1008; conditions: Severe acute respiratory syndrome coronavirus 2, Vero C1008, 48 h
[3] = tested on: SARS-CoV-2; test: microbe, parasite or virus in culture; conditions: Severe acute respiratory syndrome coronavirus 2, Vero C1008, 48 h
[4] = Vero E6 (Vero C1008) cells, CC50
[5] = Vero E6 (Vero C1008) cells, pCC50

Compound | CC50 at 48 h [1, 4] [µM] | CC50 at 48 h [1, 5] [µM] | IC50 ([2]; read-out: IC50) [µM] | IC50 ([2]; read-out: pIC50 (converted)) [µM] | IC50 [3] [µM] | IC50 ([3]; read-out: pIC50 (converted)) [µM] | CC50 at 48 h ([1]; vero c1008, CC50) [µM] | CC50 at 48 h ([1]; vero c1008, pCC50) [µM]
O=C1c2c(O)cccc2Cc2cccc(O)c21 [ANTHRALIN] | > 100 | > 100 | > 100 | > 100 | > 100 | > 100 |  | 
CN1CCCC(n2nc(Cc3ccc(Cl)cc3)c3ccccc3c2=O)CC1 (centres undefined) [AZELASTINE] | 17.8 | 17.8 | > 100 | > 100 | 13.3 | 13.2 |  | 
Nc1nc(Nc2ccc3c(c2)CC[C@@H](N2CCCC2)CC3)nn1-c1cc2c(nn1)-c1ccccc1CCC2 [BEMCENTINIB] | 1.55 | 1.55 | > 50.1 | > 50.1 | 1.78 | 1.78 |  | 
CNCc1ccc(-c2cc(-c3nc(-c4ccc(S(=O)(=O)C(C)C)cc4)cnc3N)on2)cc1 [BERZOSERTIB] | 10.2 | 10.2 | ~7.16 | ~7.08 | > 5.01 | > 5.01 |  | 
CNCCCCOc1ccccc1Cc1ccccc1 [BIFEMELANE] |  |  | 20.9 | 20.9 | > 100 | > 100 | 26.9 | 26.9
Cc1ccc(C(=O)Oc2ccc(C(O)CNC(C)(C)C)cc2OC(=O)c2ccc(C)cc2)cc1 (centres undefined) [BITOLTEROL] | 5.69 | 5.62 | > 100 | > 100 | 8.13 | 8.13 |  | 
CNCc1ccc(C)c(NC(=O)c2ccc(Nc3nc(-c4ccccc4)c4ccccc4n3)cc2)c1 [BMS-833923] | 3.09 | 3.09 | > 100 | > 100 | 2.95 | 2.95 |  | 
COc1ccccc1N1CCN(CCCCNC(=O)c2ccc3ccccc3c2)CC1 [BP-897] | 30.2 | 30.2 | > 25.1 | > 25.1 | > 25.1 | > 25.1 |  | 
O=c1ccc2ccc(OCCCCN3CCN(c4cccc5sccc45)CC3)cc2[nH]1 [BREXPIPRAZOLE] | 12 | 12 | > 100 | > 100 | > 100 | > 100 |  | 
COc1cc(Br)c2oc(C3CCNCC3)cc2c1 [BROFAROMINE] | 19.1 | 19.1 | > 100 | > 100 | 14.8 | 14.8 |  | 
CC(C)(Cc1c[nH]c2ccccc12)NCC(O)COc1ccccc1C#N (centres undefined) [BUCINDOLOL] | 30.9 | 30.9 | > 100 | > 100 | 17 | 17 |  | 
CC(C)(C)c1ccc(CN2CCN(C(c3ccccc3)c3ccc(Cl)cc3)CC2)cc1 (centres undefined) [BUCLIZINE] | 81.3 | 81.3 | 20.4 | 20.4 | > 100 | > 100 |  | 
CCCCN(CCCC)CCCOc1ccc(C(=O)c2c(CC)cc3ccccn23)cc1 [BUTOPROZINE] | 6.61 | 6.61 | > 100 | > 100 | > 100 | > 100 |  | 
CCC(=O)c1ccc2c(c1)N(CCCN1CCN(CCO)CC1)c1ccccc1S2 [CARPHENAZINE] | 6.31 | 6.31 | > 100 | > 100 | > 100 | > 100 |  | 
NC(=O)C1(N2CCCCC2)CCN(CCCN2c3ccccc3CCc3ccccc32)CC1 [CARPIPRAMINE] | 8.61 | 8.51 | > 100 | > 100 | 8.91 | 8.91 |  | 
COc1ccccc1OCCNCC(O)COc1cccc2[nH]c3ccccc3c12 (centres undefined) [CARVEDILOL] | 17 | 17 | 10 | 10 | 15.5 | 15.5 |  | 
CC(=O)N1CCN([C@H]2CCN(C(=O)N(C)[C@H](C)c3cc(C(F)(F)F)cc(C(F)(F)F)c3)[C@@H](c3ccc(F)cc3C)C2)CC1 [CASOPITANT] | 17.8 | 17.8 | > 25.1 | > 25.1 | > 25.1 | > 25.1 |  | 
COc1cc2c(Oc3ccc4[nH]c(C)cc4c3F)ccnc2cc1OCC1(N)CC1 [CATEQUENTINIB] | 5.25 | 5.25 | > 100 | > 100 | > 100 | > 100 |  | 
Cc1ccccc1CN1CCN(CCOC(c2ccccc2)c2ccccc2Cl)CC1 (centres undefined) [CHLORBENZOXAMINE] | 15.3 | 15.1 | > 25.1 | > 25.1 | > 100 | > 100 |  | 
